Where two headings read alike, the source gives them in different places.
Test system: HIV1 IIIb
Test: microbe, parasite or virus in culture
Format: cell-based
Settings: Human immunodeficiency virus 1, IIIB; for viability at 10 µg/mL: 10 ug/ml; for viability at 0.1 µg/mL: 0.1 ug/ml; for viability at 1 µg/mL: 1 ug/ml; for viability at 100 µg/mL: 100 ug/ml; for viability at 4.07 µg/mL: 4.07 ug/ml; for viability at 34.6 µg/mL: 34.6 ug/ml; for viability at 29 µg/mL: 29 ug/ml; for viability at 24.8 µg/mL: 24.8 ug/ml; for viability at 4.7 µg/mL: 4.7 ug/ml, virus kill 22.0%
From the text: In-vitro Screening Anti--HIV XTT Assay
This assay, which is available to the public by the National Cancer Institute, utilizes colorimetry based on the production of a colored formazin from a tetrazolium salt by viable cells, to develop a safe, rapid and quantitative measure of HIV cytopathology. The assay is a modification of the previously described screening method for the detection of anti-tumor drug cytotoxicity (D. A. Scudiero, et al, Cancer Res, 48, 4827-4833 (1988)). It involves the plating of susceptible human "host" cells with and without virus in microculture plates, adding various concentrations of the respective test compounds, incubating the plates for seven days, during which time infected, non-drug treated control cells are largely or totally destroyed by the virus. The number of remaining viable cells are determined utilizing a calorimetric endpoint. A beneficial antiviral effect is indicated by a response % grater than the virus kill %, with 100% being optimal.
Anti-viral effect: Response (Viable Cells, determined by colorometric
absorbance of formazan dye produced) as % of uninfected controls
Virus Source: HIV1 IIIb; C, Virus producing H9 cells; V, cell free virus
Virus Kill: Infected untreated cells as % of uninfected cell controls
*: Culture redosed with compound after 3 days

[1] = H9, 168 h, read-out: Antiviral Effect (viable cells as % of uninfected controls), run 1, source C (virus producing H9 cells), virus kill 21.0%

With `CCCCCCCCCCC[C@@H]1O[C@@H]1C(=O)O` (relative stereo) [Example 19, (2S*-cis)-3-Undecyloxiranecarboxylic Acid] the viability at 10 µg/mL (168 h, read-out: Antiviral Effect (viable cells as % of uninfected controls), run 4, source V (cell free virus), virus kill 57.0%) was 63.9%, the viability at 10 µg/mL (168 h, read-out: Antiviral Effect (viable cells as % of uninfected controls), run 5, source V (cell free virus), virus kill 26.0%) was 38.8% and the viability at 0.1 µg/mL (168 h, read-out: Antiviral Effect (viable cells as % of uninfected controls), run 6, source V (cell free virus), virus kill 19.0%) was 27.6%. For the same molecule, the viability at 1 µg/mL (168 h, read-out: Antiviral Effect (viable cells as % of uninfected controls), run 7*, source V (cell free virus), virus kill 25.0%, culture redosed with compound after 3 days) was 12.5%, the viability at 1 µg/mL [1] was 22.6% and the viability at 10 µg/mL (H9, 168 h, read-out: Antiviral Effect (viable cells as % of uninfected controls), run 2, source C (virus producing H9 cells), virus kill 15.0%) was 55.7%. The viability at 1 µg/mL (H9, 168 h, read-out: Antiviral Effect (viable cells as % of uninfected controls), run 3, source C (virus producing H9 cells), virus kill 13.0%) was 11.6%.
`CCCCCCCCCCC[C@H]1O[C@@H]1C(=O)O` (relative stereo) [Example 20, (2S*-trans)-3-Undecyloxiranecarboxylic Acid] was tested, and the viability at 100 µg/mL (168 h, read-out: Antiviral Effect (viable cells as % of uninfected controls), run 6, source V (cell free virus), virus kill 55.0%) was 75.7%, the viability at 100 µg/mL (168 h, read-out: Antiviral Effect (viable cells as % of uninfected controls), run 7, source V (cell free virus), virus kill 55.0%) was 84.3% and the viability at 100 µg/mL (168 h, read-out: Antiviral Effect (viable cells as % of uninfected controls), run 8, source V (cell free virus), virus kill 24.0%) was 40.2%. It also gave a viability at 100 µg/mL (168 h, read-out: Antiviral Effect (viable cells as % of uninfected controls), run 9, source V (cell free virus), virus kill 24.0%) of 72.5%, a viability at 4.07 µg/mL (168 h, read-out: Antiviral Effect (viable cells as % of uninfected controls), run 10, source V (cell free virus), virus kill 25.0%) of 45.5% and a viability at 4.07 µg/mL (168 h, read-out: Antiviral Effect (viable cells as % of uninfected controls), run 11*, source V (cell free virus), virus kill 23.0%, culture redosed with compound after 3 days) of 87.4%. The viability at 10 µg/mL (H9, 168 h, read-out: Antiviral Effect (viable cells as % of uninfected controls), run 1, source C (virus producing H9 cells), virus kill 18.0%) was 22.6%, the viability at 10 µg/mL (H9, 168 h, read-out: Antiviral Effect (viable cells as % of uninfected controls), run 2, source C (virus producing H9 cells), virus kill 14.0%) was 59.5% and the viability at 100 µg/mL (H9, 168 h, read-out: Antiviral Effect (viable cells as % of uninfected controls), run 3, source C (virus producing H9 cells), virus kill 14.0%) was 60.9%. It also gave a viability at 100 µg/mL (H9, 168 h, read-out: Antiviral Effect (viable cells as % of uninfected controls), run 4, source C (virus producing H9 cells), virus kill 10.0%) of 10% and a viability at 100 µg/mL (H9, 168 h, read-out: Antiviral Effect (viable cells as % of uninfected controls), run 5, source C (virus producing H9 cells), virus kill 10.0%) of 10.2%.
`CCCCCCCCC[C@@H]1O[C@@H]1C(=O)O` [Example 22, (2-S-cis)-3-Nonyloxiranecarboxylic Acid] gave a viability at 34.6 µg/mL (168 h, read-out: Antiviral Effect (viable cells as % of uninfected controls), run 8, source V (cell free virus), virus kill 54.0%) of 85.5%, a viability at 29 µg/mL (168 h, read-out: Antiviral Effect (viable cells as % of uninfected controls), run 9, source V (cell free virus), virus kill 55.0%) of 68.5% and a viability at 34.6 µg/mL (168 h, read-out: Antiviral Effect (viable cells as % of uninfected controls), run 10, source V (cell free virus), virus kill 26.0%) of 40.3%. For the same molecule, the viability at 29 µg/mL (168 h, read-out: Antiviral Effect (viable cells as % of uninfected controls), run 11, source V (cell free virus), virus kill 33.0%) was 41.9%, the viability at 24.8 µg/mL (168 h, read-out: Antiviral Effect (viable cells as % of uninfected controls), run 12, source V (cell free virus), virus kill 30.0%) was 23.1% and the viability at 24.8 µg/mL (168 h, read-out: Antiviral Effect (viable cells as % of uninfected controls), run 13*, source V (cell free virus), virus kill 20.0%, culture redosed with compound after 3 days) was 26.6%. It also gave a viability at 10 µg/mL [1] of 50.1%, a viability at 0.1 µg/mL (H9, 168 h, read-out: Antiviral Effect (viable cells as % of uninfected controls), run 2, source C (virus producing H9 cells), virus kill 20.0%) of 25.6% and a viability at 0.1 µg/mL (H9, 168 h, read-out: Antiviral Effect (viable cells as % of uninfected controls), run 3, source C (virus producing H9 cells), virus kill 8.0%) of 9.5%. The viability at 34.6 µg/mL (H9, 168 h, read-out: Antiviral Effect (viable cells as % of uninfected controls), run 4, source C (virus producing H9 cells), virus kill 16.0%) was 25.9%, the viability at 29 µg/mL (H9, 168 h, read-out: Antiviral Effect (viable cells as % of uninfected controls), run 5, source C (virus producing H9 cells), virus kill 13.0%) was 18.5% and the viability at 34.6 µg/mL (H9, 168 h, read-out: Antiviral Effect (viable cells as % of uninfected controls), run 6, source C (virus producing H9 cells), virus kill 14.0%) was 12.8%. The viability at 2.9 µg/mL (H9, 168 h, read-out: Antiviral Effect (viable cells as % of uninfected controls), run 7, 2.9 ug/ml, source C (virus producing H9 cells), virus kill 16.0%) was 11.5%.
`COC(=O)[C@@H]1O[C@@H]1COCc1ccccc1` [Example 25, Methyl (2R-cis)-3-(benzyloxymethyl)oxirane Carboxylate] was tested, and the viability at 10 µg/mL (168 h, read-out: Antiviral Effect (viable cells as % of uninfected controls), run 4, source V (cell free virus), virus kill 55.0%) was 46.5%, the viability at 1 µg/mL (168 h, read-out: Antiviral Effect (viable cells as % of uninfected controls), run 5, source V (cell free virus), virus kill 27.0%) was 49% and the viability at 4.7 µg/mL (168 h, read-out: Antiviral Effect (viable cells as % of uninfected controls), run 6, source V (cell free virus)) was 25.6%. The viability at 4.7 µg/mL (168 h, read-out: Antiviral Effect (viable cells as % of uninfected controls), run 7*, source V (cell free virus), culture redosed with compound after 3 days) was 28.5%, the viability at 100 µg/mL (H9, 168 h, read-out: Antiviral Effect (viable cells as % of uninfected controls), run 1, source C (virus producing H9 cells), virus kill 20.0%) was 28.6% and the viability at 100 µg/mL (H9, 168 h, read-out: Antiviral Effect (viable cells as % of uninfected controls), run 2, source C (virus producing H9 cells), virus kill 13.0%) was 19.5%. It also gave a viability at 10 µg/mL (H9, 168 h, read-out: Antiviral Effect (viable cells as % of uninfected controls), run 3, source C (virus producing H9 cells), virus kill 11.0%) of 12.3%.
In the case of `COC(=O)[C@H]1O[C@H]1COCc1ccccc1` [Example 26, Methyl(2S-cis)-3-(benzyloxymethyl)oxirane carboxylate], the viability at 10 µg/mL (168 h, read-out: Antiviral Effect (viable cells as % of uninfected controls), run 6, source V (cell free virus), virus kill 54.0%) was 58.7%, the viability at 100 µg/mL (168 h, read-out: Antiviral Effect (viable cells as % of uninfected controls), run 7, source V (cell free virus), virus kill 54.0%) was 81.3% and the viability at 1 µg/mL (168 h, read-out: Antiviral Effect (viable cells as % of uninfected controls), run 8, source V (cell free virus), virus kill 23.0%) was 19.8%. For the same molecule, the viability at 100 µg/mL (168 h, read-out: Antiviral Effect (viable cells as % of uninfected controls), run 9, source V (cell free virus), virus kill 23.0%) was 23.7%, the viability at 487 µg/mL (168 h, read-out: Antiviral Effect (viable cells as % of uninfected controls), run 10, 487 ug/ml, source V (cell free virus), virus kill 30.0%) was 28.1% and the viability at 0.487 µg/mL (168 h, read-out: Antiviral Effect (viable cells as % of uninfected controls), run 11*, 0.487 ug/ml, source V (cell free virus), virus kill 25.0%, culture redosed with compound after 3 days) was 26.6%. It also gave a viability at 10 µg/mL (H9, 168 h, read-out: Antiviral Effect (viable cells as % of uninfected controls), run 1, source C (virus producing H9 cells), virus kill 17.0%) of 20.8%, a viability at 10 µg/mL (H9, 168 h, read-out: Antiviral Effect (viable cells as % of uninfected controls), run 2, source C (virus producing H9 cells), virus kill 13.2%) of 39.4% and a viability at 100 µg/mL (H9, 168 h, read-out: Antiviral Effect (viable cells as % of uninfected controls), run 3, source C (virus producing H9 cells), virus kill 13.2%) of 54%. For the same molecule, the viability at 10 µg/mL (H9, 168 h, read-out: Antiviral Effect (viable cells as % of uninfected controls), run 4, source C (virus producing H9 cells), virus kill 12.0%) was 13.8% and the viability at 100 µg/mL (H9, 168 h, read-out: Antiviral Effect (viable cells as % of uninfected controls), run 5, source C (virus producing H9 cells), virus kill 12.0%) was 16.3%.
